In PubChem BioAssay (NCI):
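Values below derive from 48-hour exposures of cells grown in 96-well plates, with endpoints linearly interpolated between the two concentrations bracketing the appropriate inhibition level. TGI marks complete inhibition of growth.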

The compounds below were run on T-47D breast (assay: growth of human tumour cells (NCI), 48 h).
For `Cc1csc2nc3c(cnn3C)c(=S)n12`, the TGI was greater than 10 µM. `C/C1=C/C(C)CC(C)OC(=O)C(C)NC(=O)C(Cc2ccc(O)c(I)c2)N(C)C(=O)CNC(=O)C(C)C1` (configuration not stated) was tested, and the TGI was greater than 100 µM. In the case of `Cc1ccc(-n2cnc3c(N)nc(N)nc32)cc1`, the TGI is reported as greater than 100 µM. Work on `CNc1c2cccc(C)c2nc2c(C(=O)NCCN(C)C)cccc12` yielded a TGI of 0.675 µM. Compound `CCC(Sc1cc(Cl)c(C)cc1S(=O)(=O)Nc1nc(N)nc(N(C)C)n1)C(=O)O` (configuration not stated) has a TGI greater than 10 µM. `O=c1c(C=Nc2ccccc2Cl)c(O)n(-c2ccccc2)c(=O)n1-c1ccccc1` showed a TGI greater than 100 µM. For `CCOC(=O)NNC(=O)C1CSC(c2ccccc2)N1C(C)=O` (configuration not stated), the TGI was greater than 100 µM. `CC(C)(C)O/C=C1/C(=O)OC2C[C@@H](O[Si](C)(C)C(C)(C)C)CC12` (some centres not stated) was tested, and the TGI was greater than 100 µM. In the case of `COc1ccc2nc3c([N+](=O)[O-])ccc4c3c(c2c1)N=CN4CCCN(C)C`, the TGI is reported as 27.4 µM. For `O=C1CC(=O)NC(=NN2C(=O)/C(=C/C(=O)c3ccco3)N=C2c2ccccc2)N1`, the TGI was greater than 100 µM.

Each compound was assayed on UACC-62 melanoma (assay: growth of human tumour cells (NCI), 48 h).
With `Cc1oc2c(c1C)S(=O)(=O)C(C#N)C(c1ccccc1)N2` (configuration not stated) the TGI was greater than 100 µM. Compound `CC(=O)Oc1cc2c(n(C)c1=O)-c1ccccc1C2` has a TGI greater than 100 µM. Compound `CN(C)C=C1C(=O)c2c(Br)sc(Br)c2C1=O` has a TGI of 37.1 µM. For `CCN(CC)C(=C(C(Cl)=C(Cl)Cl)[N+](=O)[O-])N(CC)CC`, the TGI was greater than 100 µM. With `CCOC(=O)C(C(=O)OCC)=C1NC2(c3ccccc3Nc3ccc(C)cc32)C(C#N)S1` (configuration not stated) the TGI was 26.8 µM. `COC(=O)Nc1nc2ccc(S(=O)(=O)NC(CC(C)C)C(=O)OC)cc2[nH]1` (configuration not stated) showed a TGI greater than 100 µM. Compound `OC(CCN1CCCCC1)(c1ccccc1)c1ccccc1` has a TGI greater than 100 µM. `CC(C)(C)[Si](C)(C)O[C@@H](C(=O)OC1C=CCCC1)[C@@H](NC(=O)c1ccccc1)c1ccccc1` (some centres not stated) showed a TGI greater than 100 µM. `O=C(Nc1cccc2ccccc12)Nn1cnnc1` was tested, and the TGI was greater than 100 µM. In the case of `Cc1oc2c(c1C)S(=O)(=O)C(C#N)=C(c1ccccc1)N2`, the TGI is reported as greater than 100 µM. With `Cc1ccc2c(c1)C(=O)/C(=N/Nc1ccc(Cl)cc1)CCO2` the TGI was greater than 100 µM. Work on `CN(C)c1ccc(/C=N\NC(=O)c2ccccc2Nc2ccccc2C(=O)N/N=C/c2ccc(N(C)C)cc2)cc1` yielded a TGI greater than 100 µM. In the case of `CC(=O)O[C@@H]1CC[C@@]2(C)C(CC[C@H]3[C@@H]4CC[C@H]([C@H](C)CCc5nc6ccc(C)cc6[nH]5)[C@@]4(C)CC[C@@H]32)C1` (some centres not stated), the TGI is reported as greater than 100 µM. Work on `C=C1C(=O)OC2/C=C(\CO)C3OC3C3OC3(C)CC(OC(=O)/C(=C/C)CO)C12` (configuration not stated) yielded a TGI greater than 100 µM. Work on `Cc1csc2nc3c(cnn3C)c(=S)n12` yielded a TGI greater than 100 µM. Compound `C/C1=C/C(C)CC(C)OC(=O)C(C)NC(=O)C(Cc2ccc(O)c(I)c2)N(C)C(=O)CNC(=O)C(C)C1` (configuration not stated) has a TGI greater than 20.9 µM. `Cc1ccc(-n2cnc3c(N)nc(N)nc32)cc1` showed a TGI greater than 100 µM. `CNc1c2cccc(C)c2nc2c(C(=O)NCCN(C)C)cccc12` was tested, and the TGI was 0.402 µM. Compound `O=c1c(C=Nc2ccccc2Cl)c(O)n(-c2ccccc2)c(=O)n1-c1ccccc1` has a TGI greater than 100 µM. `CCOC(=O)NNC(=O)C1CSC(c2ccccc2)N1C(C)=O` (configuration not stated) gave a TGI greater than 100 µM. Compound `COc1ccc2nc3c([N+](=O)[O-])ccc4c3c(c2c1)N=CN4CCCN(C)C` has a TGI of 28.1 µM. With `O=C1CC(=O)NC(=NN2C(=O)/C(=C/C(=O)c3ccco3)N=C2c2ccccc2)N1` the TGI was greater than 100 µM.

Each compound was assayed on UO-31 renal (assay: growth of human tumour cells (NCI), 48 h).
With `Cc1oc2c(c1C)S(=O)(=O)C(C#N)C(c1ccccc1)N2` (configuration not stated) the TGI was greater than 100 µM. Work on `CC(=O)Oc1cc2c(n(C)c1=O)-c1ccccc1C2` yielded a TGI greater than 100 µM. `COc1ccc2cc(Oc3ccc(Cl)cc3)c(=O)oc2c1` was tested, and the TGI was greater than 100 µM. Work on `CN(C)C=C1C(=O)c2c(Br)sc(Br)c2C1=O` yielded a TGI of 47.5 µM. `CCN(CC)C(=C(C(Cl)=C(Cl)Cl)[N+](=O)[O-])N(CC)CC` showed a TGI greater than 100 µM. With `CCOC(=O)C(C(=O)OCC)=C1NC2(c3ccccc3Nc3ccc(C)cc32)C(C#N)S1` (configuration not stated) the TGI was 17.8 µM. `COC(=O)Nc1nc2ccc(S(=O)(=O)NC(CC(C)C)C(=O)OC)cc2[nH]1` (configuration not stated) showed a TGI greater than 100 µM. `OC(CCN1CCCCC1)(c1ccccc1)c1ccccc1` showed a TGI greater than 100 µM. Compound `CC(C)(C)[Si](C)(C)O[C@@H](C(=O)OC1C=CCCC1)[C@@H](NC(=O)c1ccccc1)c1ccccc1` (some centres not stated) has a TGI greater than 100 µM. With `O=C(Nc1cccc2ccccc12)Nn1cnnc1` the TGI was greater than 100 µM. In the case of `Cc1oc2c(c1C)S(=O)(=O)C(C#N)=C(c1ccccc1)N2`, the TGI is reported as greater than 100 µM. `Cc1ccc2c(c1)C(=O)/C(=N/Nc1ccc(Cl)cc1)CCO2` showed a TGI greater than 100 µM. `CN(C)c1ccc(/C=N\NC(=O)c2ccccc2Nc2ccccc2C(=O)N/N=C/c2ccc(N(C)C)cc2)cc1` gave a TGI greater than 100 µM. Compound `CC(=O)O[C@@H]1CC[C@@]2(C)C(CC[C@H]3[C@@H]4CC[C@H]([C@H](C)CCc5nc6ccc(C)cc6[nH]5)[C@@]4(C)CC[C@@H]32)C1` (some centres not stated) has a TGI greater than 100 µM. For `C=C1C(=O)OC2/C=C(\CO)C3OC3C3OC3(C)CC(OC(=O)/C(=C/C)CO)C12` (configuration not stated), the TGI was greater than 100 µM. `Cc1csc2nc3c(cnn3C)c(=S)n12` gave a TGI greater than 100 µM. In the case of `C/C1=C/C(C)CC(C)OC(=O)C(C)NC(=O)C(Cc2ccc(O)c(I)c2)N(C)C(=O)CNC(=O)C(C)C1` (configuration not stated), the TGI is reported as 0.035 µM. Work on `Cc1ccc(-n2cnc3c(N)nc(N)nc32)cc1` yielded a TGI greater than 100 µM. In the case of `CNc1c2cccc(C)c2nc2c(C(=O)NCCN(C)C)cccc12`, the TGI is reported as 2.49 µM. `CCC(Sc1cc(Cl)c(C)cc1S(=O)(=O)Nc1nc(N)nc(N(C)C)n1)C(=O)O` (configuration not stated) was tested, and the TGI was greater than 10 µM. `O=c1c(C=Nc2ccccc2Cl)c(O)n(-c2ccccc2)c(=O)n1-c1ccccc1` showed a TGI greater than 100 µM. Work on `CCOC(=O)NNC(=O)C1CSC(c2ccccc2)N1C(C)=O` (configuration not stated) yielded a TGI greater than 100 µM. With `CC(C)(C)O/C=C1/C(=O)OC2C[C@@H](O[Si](C)(C)C(C)(C)C)CC12` (some centres not stated) the TGI was greater than 100 µM. Work on `COc1ccc2nc3c([N+](=O)[O-])ccc4c3c(c2c1)N=CN4CCCN(C)C` yielded a TGI of 10.7 µM. In the case of `O=C1CC(=O)NC(=NN2C(=O)/C(=C/C(=O)c3ccco3)N=C2c2ccccc2)N1`, the TGI is reported as greater than 100 µM.
